# Reference: patent publication US20080170990A1, “Methods for Myocardial Imaging in Patients Having a History of Pulmonary Disease” (CV THERAPEUTICS, INC., priority 2006, published 2008)
# Read-outs that look alike come from different tables or passages of the source.
# Columns and labels:
# [1] = system: healthy, non-smoking male subjects; experiment: Phase 1 ascending dose study, safety and maximum tolerated dose (Example 3); type: in vivo, human
# Description: The study was performed using thirty-six healthy, non-smoking male subjects between the ages of 18 and 59 and within 15% of ideal body weight.
# The study was performed in phase 1, single center, double-blind, randomized, placebo-controlled, crossover, ascending dose study. Randomization was to Regadenoson or placebo, in both supine and standing positions.
# (§1) Regadenoson was administered as an IV bolus (20 seconds) in ascending doses of […], 10, 20 and 30 μg/kg.
# Subjects received either Regadenoson of placebo on Day 1 supine, then crossover treatment on Day 2 supine. On Day 3, subjects received Regadenoson or placebo standing, then crossover treatment on Day 4 standing.
# Patient safety was monitored by ECG, laboratory assessments, and collection of vital signs and adverse events.
# [2] = Phase 1 pharmacokinetics after single IV bolus, three-compartment model (Example 3); type: in vivo, human; settings: for Vd: human, plasma, intravenous, read-out: Vc (central volume of distribution)
# Description: as §1
# Plasma samples were drawn during supine phase (Days 1 and 2) at 0, 1, 2, 3, 4, 5, 7, 10, 15, 20, 30, 45 minutes after dosing and at 1, 1.5, 2, 4, 6, 8, 12 and 24 hours after dosing. Urine was collected for 24 hours for Regadenoson excretion.
# A three-compartment open model was fit to the data using observed Tmax (1-4 minutes) as the duration of a zero-order infusion. Reliable parameter estimates were obtained for dose of 1-30 μg/kg. Parameters are summarized in the following (Table 2): […]
# [3] = system: anesthetized dog; experiment: Blood flow velocity in various vascular beds, intravascular Doppler (Example 4); type: in vivo; settings: 1.0 μg/kg intravenous bolus
# Description: The effects of Regadenoson were quantified as the average peak blood flow velocity (APV) using intravascular Doppler transducer tipped catheter. Heart rate (HR) and systemic arterial blood pressure (BP) were also monitored.
# [4] = system: awake rats; experiment: Sympathoexcitation: heart rate, blood pressure and plasma catecholamines after i.v. bolus (Example 5); type: in vivo, rat
# Description: CVT (0.31 μg/kg-50 μg/kg) was given as a rapid i.v. bolus to awake rats and heart rate (HR) and blood pressure (BP) were monitored. Regadenoson caused an increase in BP and systolic pressure (SP) at lower doses while at higher doses there was a decrease in BP and SP. […] The increase in HR was evident at the lowest dose of CVT at which there was no appreciable decrease in BP. ZM241385 (30 μg/kg, N=5), an A2A adenosine receptor antagonist, attenuated the decrease in BP (Regadenoson: 14±3%, ZM: 1±1%) and the increase in HR (CVT: 27±3%, ZM: 18±3%) caused by Regadenoson. Pretreatment with metoprolol (MET, 1 mg/kg, n=5), a beta-blocker, attenuated the increase in HR (CVT: 27±3%, MET: 15±2%), but had no effect on hypotension caused by Regadenoson. In the presence of hexamethonium (HEX, 10 mg/kg, n=5), a ganglionic blocker, the tachycardia was prevented (CVT: 27±3%, HEX: −1±2%), but BP was further reduced (CVT: −11±2%, HEX: −49±5%).
# [5] = system: COPD patients; settings: both, human, in vivo
# Description: COPD patients were selected from two phase III randomized, triple-blind, placebo-controlled, multicenter studies (N=2,015) designed to test the strength of agreement for reversible cardiac defects between ADO and REG. There were 35 patients in the ADO group and 69 in the Regadenoson group. Age and gender were similar between ADO (68=11 yrs; 77% male) and Regadenoson group (68±11 yrs; 81% male). Of the 35 patients, 5 suffered (14%) cardiac symptoms in the ADO group vs 3/69 (4%) in the Regadenoson group (p=0.12); 14/35 (40%) in the ADO vs. 20/69 (29%) in the Regadenoson group resorted respiratory symptoms (p=0.28). Angina, occurrence of second degree AV block, acute pulmonary oedema and ronchi were higher in ADO group; nausea, GI discomfort and headache occurred more often in the Regadenoson group.
# [6] = 30 μg/kg supine, 4 subjects per group
structure (smiles),measurement,setting,value
"CNC(=O)c1cnn(-c2nc(N)c3ncn([C@@H]4O[C@H](CO)[C@@H](O)[C@H]4O)c3n2)c1 [Regadenoson, (1-{9-[(4S,2R,3R,5R)-3,4-dihydroxy-5-(hydroxymethyl)oxolan-2-yl]-6-aminopurin-2-yl}pyrazol-4-yl)-N-methylcarboxamide]",number of subjects with severe AE: Palpitation,[1]; [6],2
same,number of subjects with severe AE: Syncope,[1]; [6],0
same,tolerability,"[1]; healthy volunteers, single IV bolus",well-tolerated
same,mean tolerable dose,[1]; standing,0.01 mg/kg
same,mean tolerable dose,[1]; supine,0.02 mg/kg
same,K21 (rate constant for transfer from first peripheral to central compartment),"[2]; Total (all doses), N=22, mean",0.258 min⁻¹
same,K31 (rate constant for transfer from second peripheral to central compartment),"[2]; Total (all doses), N=22, mean",0.0143 min⁻¹
same,Vss (volume of distribution at steady state),"[2]; Total (all doses), N=22, mean",75.5 L
same,K21 (rate constant for transfer from first peripheral to central compartment),"[2]; dose 1 μg/kg, N=3, mean",0.246 min⁻¹
same,K31 (rate constant for transfer from second peripheral to central compartment),"[2]; dose 1 μg/kg, N=3, mean",0.01808 min⁻¹
same,K21 (rate constant for transfer from first peripheral to central compartment),"[2]; dose 3 μg/kg, N=4, mean",0.203 min⁻¹
same,K31 (rate constant for transfer from second peripheral to central compartment),"[2]; dose 3 μg/kg, N=4, mean",0.0152 min⁻¹
same,α Half-life,"[2]; dose 3 μg/kg, N=4, mean",3.11 min
same,K21 (rate constant for transfer from first peripheral to central compartment),"[2]; dose 10 μg/kg, N=4, mean",0.187 min⁻¹
same,K31 (rate constant for transfer from second peripheral to central compartment),"[2]; dose 10 μg/kg, N=4, mean",0.0108 min⁻¹
same,K21 (rate constant for transfer from first peripheral to central compartment),"[2]; dose 20 μg/kg, N=8, mean",0.387 min⁻¹
same,K31 (rate constant for transfer from second peripheral to central compartment),"[2]; dose 20 μg/kg, N=8, mean",0.0141 min⁻¹
same,CL (clearance),"[2]; dose 20 μg/kg, N=8, mean (SD)",743 (123) mL/min
same,K21 (rate constant for transfer from first peripheral to central compartment),"[2]; dose 30 μg/kg, N=3, mean",0.0948 min⁻¹
same,K31 (rate constant for transfer from second peripheral to central compartment),"[2]; dose 30 μg/kg, N=3, mean",0.0148 min⁻¹
same,Vss (volume of distribution at steady state),"[2]; dose 30 μg/kg, N=3, mean",89.6 L
same,λ Half-life,"[2]; dose 30 μg/kg, N=3, mean",99.4 min
same,Vd,"[2]; 1 ug/kg, N=3, mean (SD)",9.84 L
same,Vd,"[2]; 3 ug/kg, N=4, mean (SD)",13.7 L
same,Vd,"[2]; 10 ug/kg, N=4, mean (SD)",17.9 L
same,Vd,"[2]; 20 ug/kg, N=8, mean",12.5 L
same,Vd,"[2]; 30 ug/kg, N=3, mean",15.7 L
same,Vd,"[2]; Total (all doses), N=22, mean",13.8 L
same,time for effect on blood flow velocity to dissipate,[3],less than ten minutes
same,effect on HR,[4]; 0.31 μg/kg-50 μg/kg rapid i.v. bolus,dose-dependent increase in HR
same,BP change caused by Regadenoson,[4]; CVT alone (hexamethonium experiment),−11±2%
same,increase in HR caused by Regadenoson,"[4]; CVT alone (printed three times: ZM, MET, HEX comparisons)",27±3%
same,decrease in BP caused by Regadenoson,[4]; Regadenoson alone (ZM241385 experiment),14±3%
same,patients with cardiac symptoms,[5],4%
same,"patients with cardiac symptoms, number",[5],3/69
same,patients with respiratory symptoms,[5],29%
same,"patients with respiratory symptoms, number",[5],20/69
